Test results taken from article PMC9538944, “In vitro biotransformation assays using fish liver cells: Comparing rainbow trout and carp hepatocytes” (Frontiers in Toxicology, 2022).
Values joined by “and” are separate entries in the source; they are usually repeats but may differ in a detail not shown here. Identical values can stand only once. Like-named read-outs stand apart in the source and are kept apart here.

Legend:
[1] = In vivo bioconcentration test OECD TG 305, trout; parameters: species or system Oncorhynchus mykiss; conditions: rainbow trout (Oncorhynchus mykiss); for concentration at 7 d: day 7 (uptake); for concentration at 40 d: day 40 (depuration)
Procedure: (§1) In vivo BCF values for MXC and BaP in carp and trout were determined in bioconcentration tests with both species in accordance to OECD TG 305 ([OECD, 2012]). The studies were approved by the State Agency for Nature, Environment and Consumer Protection (LANUV) North Rhine-Westphalia. The fish were exposed to a single concentration of both test items in a flow-through system for 35 days. No control groups were used. Dosing was performed by a solid-phase desorption system which was integrated in the fresh water supply allowing for a constant delivery of test concentrations to the fish chambers. The procedure of column generated concentrations was described in detail by [Schlechtriem et al. (2017)]. For the present study, two packed columns containing each 500 g Florisil® loaded with 200 mg of either MXC or BaP were used for each fish chamber. The uptake (exposure) phase of the study was followed by a 35 days depuration phase in uncontaminated water. The flow-through rate was maintained at 38.6 L/h for carp and 30.1 L/h for trout throughout the test. […] Additional 2-4 fish were sampled each, at the start and at the end of the exposure period, as well as at the end of the depuration period for lipid analysis. The total lipid content of the fish was measured individually by gravimetric analysis according to [Smedes (1999)].
(§2) Water samples (400 ml) were taken from the test chambers at least three times per week. Preparation for chemical analysis was performed by liquid-liquid extraction using n-hexane (10 ml) containing deuterated MXC (35 ng). The purified organic phase was subdivided into two equal parts and evaporated to dryness under a stream of nitrogen. One part of the residue was dissolved in 200 µL DCM for MXC analysis. The other part was mixed with 1 ml ACN: water (8:2, v/v) and subjected to BaP analysis. Whole fish samples were prepared for chemical analysis individually. After grinding the tissue with the addition of dry ice in a Thermomix™ 31 (Vorwerk), the finely powdered homogenate was lyophilized using an AdVantage freeze dryer (Ismatec). Aliquots of the dry samples (0.5 g) were spiked with deuterated internal standards (5 ng MXC-d6 and 0.2 ng BaP-d12) and extracted three times with acetone: DCM (1:1, v/v) (10 ml). The pooled extracts were then extracted with ultra-pure water (45 ml) and mixed with sodium chloride (5 g) to remove acetone and matrix. The organic phase was concentrated (0.5 ml) and dissolved in cyclohexane: DCM (1:1, v/v) (4.2 ml). This was subjected to gel permeation chromatography (GPC) (GILSON system equipped with pump 307, syringe pump 402, GX-271 liquid handler, 508 interface module, and Trilution® LC software; column i. d. 1.5 cm, material Bio-Beads S-X3, 200–400 mesh, Bio-Rad, flow rate 2 ml/min). Eluates containing MXC (26–31 min retention time) and BaP (32–38 min retention time) were evaporated to dryness and dissolved in hexane (1 ml) and toluol (50 µL), respectively. The collected MXC extracts were further concentrated by solid-phase extraction (SPE, Sep-Pak® Vac 12cc, 2 g, silica cartridges, Waters) using DCM: n-hexane (50:50, v/v) as eluent. Eluent and hexane were used to equilibrate and condition the column before sample loading and subsequent washing with DCM: n-hexane (30:70, v/v). The eluate containing MXC was dried down and reconstituted in toluol (0.5 ml).
(§3) MXC in the organic phase of samples from the in vitro incubations and in DCM extracts of water samples from the in vivo bioconcentration tests were analyzed by gas chromatography-mass spectrometry (GC-MS). The GC-MS system consisted of a HP5890 series II GC coupled to a HP5972 mass sensitive detector (Hewlett-Packard). Separations were performed on 5% phenyl polysilphenylene-siloxane capillary columns (BPX-5, 30 m length x 0.25 mm i. d, 0.25 µm df, SGE). […]

rainbow trout = experiment: In vivo bioconcentration test OECD TG 305, trout; parameters: species or system Oncorhynchus mykiss
Procedure: as §1, §2, §3

[2] = in vivo, Cf data, concentration measured in individual fish
[3] = in vivo, rainbow trout, read-out: Mean Cf
[4] = in vivo, rainbow trout, day 14 (uptake), read-out: Mean Cf
[5] = in vivo, rainbow trout, day 21 (uptake), read-out: Mean Cf
[6] = in vivo, rainbow trout, day 28 (uptake), read-out: Mean Cf
[7] = in vivo, rainbow trout, day 35 (end of uptake), read-out: Mean Cf
[8] = in vivo, rainbow trout, day 44 (depuration), read-out: Mean Cf
[9] = rainbow trout (Oncorhynchus mykiss), in vivo
[10] = in vivo, rainbow trout, BaP background corrected, read-out: Cf data, concentration measured in individual fish

Work on `c1ccc2c(c1)cc1ccc3cccc4ccc2c1c34` [BaP, benzo[a]pyrene] yielded a concentration at 14 d [1, 2] of 0.079 ng/g, a concentration at 21 d [1, 2] of 0.111 ng/g and a concentration at 28 d [1, 2] of 0.126 ng/g. It also gave a concentration at 35 d [1, 2] of 0.084 ng/g, a concentration at 44 d [1, 2] of 0.004 ng/g and a concentration at 7 d [1, 3] of 0.107 ng/g. It also gave a concentration at 14 d [1, 4] of 0.07 ng/g, a concentration at 21 d [1, 5] of 0.141 ng/g and a concentration at 28 d [1, 6] of 0.121 ng/g. It also gave a concentration at 35 d [1, 7] of 0.116 ng/g, a concentration at 40 d [1, 3] of 0.011 ng/g and a concentration at 44 d [1, 8] of 0.003 ng/g. For the same compound, the concentration at 21 d ([1]; whole fish, other: exposure via water in a flow-through system, rainbow trout, day 21 (uptake), BaP background corrected, read-out: Cf data, concentration measured in individual fish) was 0.107 ng/g, the “Cf,SS concentration in fish at steady-state” value (“Cf,SS concentration in fish” below) (rainbow trout; [9]) was 0.126 µg/kg and the “kB, in vivo estimate Trout” value (rainbow trout; [9]) was 0.40 day⁻¹. For the same compound, the “kB, in vivo estimate, range of 95% probability” value (rainbow trout; [9]) was 0.13 to 1.2 day⁻¹, the “kT depuration rate constant” value (rainbow trout; [9]) was 0.427 day⁻¹ and the “kTG growth corrected depuration rate constant” value (rainbow trout; [9]) was 0.401 day⁻¹. The “BCFSSL lipid-normalized steady-state bioconcentration factor” value (rainbow trout; rainbow trout (Oncorhynchus mykiss), in vivo, 35 d) was 42.8 L/kg and the “Cf data, concentration measured in individual fish” value (shortened to “Cf data, concentration measured”) (rainbow trout; rainbow trout (Oncorhynchus mykiss), in vivo, 44 d) was 0.002 µg/kg.
For `COc1ccc(C(c2ccc(OC)cc2)C(Cl)(Cl)Cl)cc1` [MXC, methoxychlor], the concentration at 7 d [1, 10] was 25.9 ng/g, the concentration at 7 d [1, 3] was 23 ng/g and the concentration at 14 d ([1]; in vivo, rainbow trout, day 14 (uptake), BaP background corrected, read-out: Cf data, concentration measured in individual fish) was 27.1 ng/g. For the same compound, the concentration at 14 d [1, 4] was 21.1 ng/g, the concentration at 21 d ([1]; in vivo, rainbow trout, day 21 (uptake), BaP background corrected, read-out: Cf data, concentration measured in individual fish) was 28 ng/g and the concentration at 21 d [1, 5] was 21.5 ng/g. For the same compound, the concentration at 28 d ([1]; in vivo, rainbow trout, day 28 (uptake), BaP background corrected, read-out: Cf data, concentration measured in individual fish) was 53.2 ng/g, the concentration at 28 d [1, 6] was 41.9 ng/g and the concentration at 35 d [1, 7] was 46.4 ng/g. The concentration at 40 d [1, 10] was 9.62 ng/g, the concentration at 40 d [1, 3] was 13.8 ng/g and the concentration at 44 d [1, 8] was 6.06 ng/g. For the same compound, the concentration at 56 d ([1]; in vivo, rainbow trout, day 56 (depuration), outlier excluded, read-out: Mean Cf) was 1.75 ng/g, the concentration at 70 d ([1]; in vivo, rainbow trout, day 70 (end of depuration), read-out: Mean Cf) was 1.01 ng/g and the BCFSS (rainbow trout; Rainbow trout - high BCFSS) was 3854 L/kg. The “Cf,SS concentration in fish” value (rainbow trout; Rainbow trout - high BCFSS) was 44.1 µg/kg, the “kTG growth corrected depuration rate constant” value (rainbow trout; Rainbow trout - high BCFSS) was 0.201 day⁻¹ and the “kT depuration rate constant” value (rainbow trout; Rainbow trout - high BCFSS (kT-high, day 56-70 values excluded)) was 0.227 day⁻¹. For the same compound, the “BCFSSL lipid-normalized steady-state bioconcentration factor” value (rainbow trout; Rainbow trout - high BCFSS, 5% lipid content) was 2122 L/kg, the “Cf,SS concentration in fish” value (rainbow trout; rainbow trout) was 30.76 µg/kg and the “kT depuration rate constant” value (rainbow trout; rainbow trout) was 0.150 day⁻¹. The “kTG growth corrected depuration rate constant” value (rainbow trout; rainbow trout) was 0.124 day⁻¹, the “BCFSSL lipid-normalized steady-state bioconcentration factor” value (rainbow trout; rainbow trout, 5% lipid content) was 1479 L/kg and the “Cf data, concentration measured” value (rainbow trout; rainbow trout, day 7 (uptake), BaP background corrected) was 30.0 µg/kg and 18.7 µg/kg and 17.4 µg/kg. For the same compound, the “Cf data, concentration measured” value (rainbow trout; rainbow trout, day 14 (uptake), BaP background corrected) was 18.1 µg/kg and 25.4 µg/kg and 13.7 µg/kg, the “Cf data, concentration measured” value (rainbow trout; rainbow trout, day 21 (uptake), BaP background corrected) was 23.9 µg/kg and 14.5 µg/kg and 19.4 µg/kg and the “Cf data, concentration measured” value (rainbow trout; rainbow trout, day 28 (uptake), BaP background corrected) was 50.1 µg/kg and 34.5 µg/kg and 29.6 µg/kg. The “Cf data, concentration measured” value (rainbow trout; rainbow trout, day 35 (end of uptake), BaP background corrected) was 50.9 µg/kg and 49.5 µg/kg and 23.5 µg/kg and 61.7 µg/kg, the “Cf data, concentration measured” value (rainbow trout; rainbow trout, day 40 (depuration), BaP background corrected) was 15.9 µg/kg and 15.8 µg/kg and the “Cf data, concentration measured” value (rainbow trout; rainbow trout, day 44 (depuration), BaP background corrected) was 2.19 µg/kg and 7.53 µg/kg and 8.23 µg/kg and 6.28 µg/kg. The “Cf data, concentration measured” value (rainbow trout; rainbow trout, day 56 (depuration), 5.42 identified as outlier and excluded) was 5.42 µg/kg and 2.06 µg/kg and 2.23 µg/kg and 0.969 µg/kg and the “Cf data, concentration measured” value (rainbow trout; rainbow trout, day 70 (end of depuration)) was 2.46 µg/kg and 0.320 µg/kg and 0.237 µg/kg.
